Results taken from patent US9355787B2, “Method of forming rigid imide material from soluble amide ester functionalized precursors” (Colorado School of Mines, priority 2013, dated 2016).

Assay: Qualitative solubility of diester-diacid monomers in organic solvents

**Q.** Which “Solubility of monomer or dianhydride, in words” value (shortened to “Solubility”) does the source give for CCCCCCOC(=O)c1ccc2c3ccc(C(=O)O)c4c(C(=O)OCCCCCC)ccc(c5ccc(C(=O)O)c1c52)c43 [Monomer 2c, di-N-hexyl ester of perylene-3,4,9,10 tetracarboxylic acid] here?
**A.** soluble in polar aprotic solvents like NMP, and DMSO

**Q.** For CCCCC(CC)COC(=O)c1ccc2c3ccc(C(=O)O)c4c(C(=O)OCC(CC)CCCC)ccc(c5ccc(C(=O)O)c1c52)c43 (stereo not drawn) [Monomer 2d, di-2-ethy hexyl ester of perylene-3,4,9,10 tetracarboxylic acid], which “Solubility” value is on record?
**A.** soluble in polar aprotic solvents like NMP, and DMSO

**Q.** Which “Solubility” value does the source give for O=C1OC(=O)c2ccc3c4ccc5c6c(ccc(c7ccc1c2c73)c64)C(=O)OC5=O [PTDA, 3,4,9,10-perylenetetracarboxylic dianhydride] here?
**A.** insoluble in all solvents

**Q.** For di-ethyl ester of NTDA [Monomer 1b], which “Solubility” value is on record?
**A.** soluble in most of the organic solvents

**Q.** With di-hexyl ester of NTDA [Monomer 1c] as the compound, how does the “Solubility” value read?
**A.** soluble in most of the organic solvents

**Q.** With di-methyl ester of NTDA [Monomer 1a] as the compound, how does the “Solubility” value read?
**A.** soluble in most of the organic solvents
